According to patent US9161944B2, “Method for preventing cancer metastasis” (INSERM (INSTITUT NATIONAL DE LA SANTE ET DE LA SANTE ET DE …, priority 2010, dated 2015):

Legend:
MDA-MB-435s = assay: Cytotoxicity / cell viability (MTT, tetrazolium salt reduction)
MCF-10A [1] = assay: Viability (MTT) of non cancerous cells; assay type: cell-based, human; details: FIG. 6D
Experimental: (§1) FIG. 6: JPH1701 (or Ohmline) activity on cell motility on cancerous MDA-MB-435s cells and on non cancerous MCF-10A cells. The motility was tested by transwell assay. Additionally, viability tests were performed using MTT assays. FIG. 6A-B) JPH1701 (the concentrations of JPH1701, for the FIG. 6A, are 0 (control condition), 10 nM, 100 nM, 300 nM and 1 μM) reduces motility (FIG. 6A) of MDA-MB-435s wild type (WT) cells from 10 nM without affecting viability (FIG. 6B) except at 10 μM. FIG. 6C-D) MCF-10A motility (FIG. 6C) and viability (FIG. 6D) are not affected by JPH1701 (the concentrations of JPH1701, for the FIG. 6C, are 0 (control condition), 10 nM, 100 nM, 300 nM and 1 μM). FIG. 6E-F) Effect on SK3 dependent motility.
(§2) The immortalized normal mammary epithelial cell lines MCF-10A and 184A1 were cultured in DMEM/Ham's F-12, 1:1 mix containing 5% horse serum (Invitrogen Life Technologies, France), insulin (10 μg/ml), epidermal growth factor (20 ng/ml), hydrocortisone (0.5 μg/ml) and, respectively for MCF-10A and 184A1, 100 ng/ml cholera toxin and 1 ng/ml cholera toxin plus 5 μg/ml transferrin.

MDA-MB-435s-luc cells = assay: Mammary fat pad (MFP)-model tumor; assay type: in vivo, NMRI nude mice; details: 15 mg/kg i.v. three times a week
Experimental: FIG. 10. Anti-metastatic effect of JPH1701 on experimental metastasis model. Two millions of MDA-MB-435s-luc cells pre-treated for 24 hours with JPH1701 (1 μM) or vehicle were grafted in MFP of NMRI/Nude mice. Mice were treated three times a week with JPH1701 at 15 mg/kg in i.v. or with vehicle during all the experiments (14-15 weeks). The primary tumor was surgical removed when its volume attempted 500 mm3 (6-7 weeks post-graft). Mice were euthanized 7-8 weeks after surgical removed of the primary tumor. FIG. 10A-B) In vivo BLI of metastases from mice treated with vehicle (FIG. 10A) or with JPH1701 (FIG. 10B) before euthanasia. FIG. 10C) Number of tissue with metastases detected ex vivo by bioluminescence (including lymph nodes, lungs, rachis and bone legs) after euthanasia. FIG. 10D) Metastatic score of mice treated with vehicle or with JPH1701. Two parameters were used to assess the metastatic score of each mouse: (i) Number of tissue or organ with metastases detected ex vivo by BLI and (ii) BLI intensity (photon/min) of each metastasis. […] The score of each cohort (sum of individually score) represents the degree of metastatic development assessed in vivo by BLI.
Two millions of MDA-MB-435s-luc cells pre-treated for 24 hours with JPH1701 (1 μM) or vehicle were grafted in MFP of NMRI/Nude mice. […] Two weeks post-graft, primary tumors were measured, weekly, during 6 weeks in three dimensions with a caliper and tumor volume was calculated (black circles: vehicle, open circles: JPH1701). […] Two weeks post-graft, the number of cancer cells in the primary tumor was evaluated weekly during 6 weeks by BLI imaging (black circles: vehicle, open circles: JPH1701). […]
The growth of primary tumors was weekly evaluated by caliper measurement and by bioluminescence imaging (BLI). The tumor volume was calculated as length×width×depth and the primary tumor was surgical removed when its volume attempted 500 mm3 (6-7 weeks post graft). Mice were euthanized 8 weeks after tumor excision and metastases were detected ex vivo by bioluminescence imaging in lymph nodes, lungs, rachis, and bone legs. […]

MCF-10A [2] = assay: Transwell motility of non cancerous cells; assay type: cell-based, human; details: 10 nM to 1 μM, FIG. 6C
Experimental: as §1, §2

hexadecyloxy-2-O-methyl-sn-glycerol-lactose [JPH1701]
Toxicity (MDA-MB-435s; Table 2, viability of MDA-MB-435s): No at 10 μM | Effect on cell viability (MDA-MB-435s; at 10 nM to 1 μM, FIG. 6B): no effect on cell viability | Effect on MDA-MB-435s proliferation (MDA-MB-435s; in vitro): no effect | IC50 (MDA-MB-435s; read-out: Cytotoxicity IC50, Table 1): > 10 µM | Effect on cell viability of non-cancerous cells (MCF-10A [1]): did not affected | Metastatic score versus vehicle (Rank Sum Test) (MDA-MB-435s-luc cells; 14-15 weeks, FIG. 10D): significantly different | Number of cancer cells in the primary tumor (BLI) versus vehicle (MDA-MB-435s-luc cells; 6 weeks, FIG. 12B): did not highlighted any significant difference | Time course of primary tumor volume versus vehicle (MDA-MB-435s-luc cells; over 6 weeks, FIG. 12A): no difference | Effect on cell migration of non-cancerous cells (MCF-10A [2]): did not affected
